These results are taken from EP4623911A1, “PI4KB INHIBITORS FOR THE TREATMENT OF FATTY LIVER DISEASE” (ETH Zurich, priority 2024, dated 2025).

Entries after “also recorded” stand apart in the source; their conditions may differ.

Assay [1] can be described thus: Indirect calorimetry in HFD-fed mice. Format: in vivo. The settings on record: HFD mixed with UCB9608 (5 mg/kg) for 3 weeks, vs DMSO. Here is the method: 8-10 weeks old C57BL/6N male mice were fed on HFD mixing with DMSO or UCB9608 (5 mg/kg) for 3 weeks before indirect calorimetry measurements were performed with Phenomaster (TSE systems) according to the manufacturer's instructions. Animals were single caged and adapted to the metabolic cage for 48h prior to metabolic recording. The energy expenditure between both groups was analyzed via ANCOVA method and RER was analyzed via two-way ANOVA method.

A further assay concerns murine NASH model. The assay can be described thus: Murine NASH model (HFD, glucose/fructose drinking water, thermoneutral housing) treated with UCB9608. Type of assay: in vivo, mice. Here is the method: To model NASH in murine liver, male C57BL/6N mice were challenged with HFD for 24 weeks in conjunction with 18.9 g/L glucose&23.1 g/L fructose containing drinking water under thermoneutral housing condition (29°C) for 12 weeks before the administration of UCB9608 through HFD (15 mg/kg) for another 12 weeks. Then the mice were analysed in EcoMRI for body composition measurement before 6 hours fasting, followed by dissection to harvest liver and sample blood.
Total RNA was extracted from adipose depots, liver or in vitro cell cultures via Trizol reagent (Invitrogen) according to the manufacturer's instructions. Genomic DNA was removed from the crude RNA samples by DNase treatment (NEB BioLabs). For individual sample, 1 µg of total RNA was used to convert into cDNA library by using the High-Capacity cDNA Reverse transcription kit (Applied Biosystems, 4368813). Quantitative PCR was performed using KAPA SYBR FAST Universal kit (Roche, KK4618) on ViiA7 (Applied Biosystems) and the relative transcript levels were normalized to […] expression via ΔΔCt method. Table 2: Sequences of qPCR primers used in this study.
Plasma collected from mice under different conditions was used to determine levels of lipolysis and liver injury. FFA levels were measured via NEFA assay kit (Wako NEFA kit). TG levels were determined via TG assay kit (Roche Trig/GB reagent). ALT (MAK052, Sigma) and AST (MAK055, Sigma) assay kits were used to determine ALT and AST activity according to the manufacturer's instructions. The absorbance was monitored using Synergy Gen5 Platereader.
Weight of liver pieces (50-100 mg) was recorded before homogenization by 1 mL isopropanol per 50 mg tissue. The homogenates were incubated at room temperature with rotating before spinning down to remove debris at 2000×g for 10 min and collect supernatant. The TG levels were determined (Roche Trig/GB reagent) in Synergy Gen5 Platereader and normalized to the weight of liver pieces.
For NASH cohort, livers were dissected and fixed with 4% PFA in PBS for 24 h at 4°C. The samples were sent to the University of Zurich for histologic analyses. Briefly, liver tissues were dehydrated and embedded in paraffin and underwent section at 3 µm. The slides were stained with hematoxylin and eosin (H&E) and Gomori Green Trichrome directly or stained with anti-cleaved Caspase 3 after antigen retrieval. Afterwards, the images were captured by digital slide scanners and the grade of steatosis, ballooning, inflammation and fibrosis were quantified via the NASH Clinical Research Network Scoring System (Kleiner,D.E. et al. Hepatology 41, (2005)). To perform ORO staining, the fixed samples were sectioned, and the slides were stained via Oil Red O solution, followed by counter-staining with eosin. The images were acquired by digital slide scanners.

Setting [2] is: NASH mice, 12 weeks after administration of UCB9608.
[3] abbreviates: liver histology, NASH mice, UCB9608 vs vehicle.

As for `COc1ccc(NC(=O)N2CCN(c3nc(N)nc4c3cnn4C)[C@@H](C)C2)c(C)c1` [UCB9608], the energy expenditure entry in assay [1] was “higher”. In addition, the “transcript levels of inflammatory markers” value with murine NASH model (NASH livers, qPCR) is reported as “mitigation”. Also, in the assay with murine NASH model (NASH livers, qPCR, vs vehicle-treated control NASH mice), the fibrosis-related marker expression result is “substantially ameliorated”. For the same compound, in the assay on murine NASH model (setting [2]), the “TG levels in the plasma” value is recorded as “reduction; also recorded: reduced” and the “lipolysis (plasma FFA levels)” value is recorded as “enhanced”. For the same compound, in the assay on murine NASH model (NASH mice, UCB9608 12 weeks), the “ALT activity in the plasma” value is reported as “reduction”, the “AST activity in the plasma” value is on record as “reduction”, the “hepatic TG levels” value is recorded as “reduced” and the “liver mass/body weight ratio” value was “reduced”. The body weight entry in the assay on murine NASH model (NASH mice, UCB9608 through HFD (15 mg/kg) for 12 weeks) is on record as “significant loss”. Moreover, in the assay on murine NASH model (NASH mice, UCB9608 through HFD (15 mg/kg) for 12 weeks, EcoMRI), the fat mass entry was “significant loss”. Besides, in the assay on murine NASH model (setting [3]), the NAFLD activity score result is listed as “significantly lower”, the fibrosis grade entry is reported as “significantly lower”, the inflammation levels result was “significantly lower” and the liver injury result is “significantly lower”. Moreover, in the assay on murine NASH model (setting [3]), the steatosis grade entry is “significantly lower”. In addition, the fatty acid oxidation entry with murine NASH model (liver of NASH mice, UCB9608 12 weeks) is on record as “significant elevation”.
